Experiment [1] addresses T1, CRTH2 (Homo sapiens, UniProt Q9Y5Y4).
T1 construct: prolactin (prolac) signal peptide (N); expressed in transfected cells; host or cells: 300-19 cells (transformed murine pre-B lymphocytes)
T1 sequence (Q9Y5Y4 1-395): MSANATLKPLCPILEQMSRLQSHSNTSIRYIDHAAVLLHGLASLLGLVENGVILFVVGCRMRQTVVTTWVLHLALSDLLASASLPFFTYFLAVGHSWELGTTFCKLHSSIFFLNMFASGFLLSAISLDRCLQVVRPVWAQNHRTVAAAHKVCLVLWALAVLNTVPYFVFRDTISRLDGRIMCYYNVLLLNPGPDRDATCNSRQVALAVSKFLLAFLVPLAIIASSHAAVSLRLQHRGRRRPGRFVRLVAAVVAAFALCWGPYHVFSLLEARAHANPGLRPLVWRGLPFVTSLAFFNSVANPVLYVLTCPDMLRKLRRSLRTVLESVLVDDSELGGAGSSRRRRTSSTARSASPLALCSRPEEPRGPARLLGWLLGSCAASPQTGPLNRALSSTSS
The experiment can be described thus: Competition with 3H-PGD2 binding at the CRTH2 receptor (Examples 6-9). Conditions: from IC50 at CRTH2 and at DP. As for the experimental part: To directly determine the binding affinity of CRTH2 for PGD2, the following binding assay was used. Transfected and parental 300-19 cells were washed twice at room temperature with assay buffer, and resuspended at a concentration of 2×10^7 cells/ml. Using a 96-well U-bottom polypropylene plate (Costar, Corning Inc., Acton, Mass.), the assay was set up as follows: 50 μl of vehicle (0.3% DMSO in assay buffer, total wells) or of […] cold PGD2 (NS wells); 50 μl cells (2×10^7 cells/ml for 10^6 cells per well); 50 μl 6 nM [3H]-PGD2. The plate was allowed to incubate for 20 min at RT before centrifugation (2800 rpm, Sorval RT6000, 5 min, 4° C.). The plate was harvested (Packard Unifilter plate GF/C, previously soaked in 3% PEI for at least 1 hr) with cold assay buffer using a Packard Filtermate Cell Harvester (6×150 μl buffer wash per well). The filterplate was dried overnight. After the addition of 50 μl scintillation fluid (Packard Microscint 0), the plate was counted in a Packard Topcount scintillation counter (1 min per well). […] The solutions of labeled PGD2 and unlabeled “cold” PGD2 were prepared as follows: 10 μl of [^3H]-PGD2 (Amersham lot # TRK734 162 Ci/mmol, 0.1 Ci/ml in methanol: water: acetonitrile (3:2:1), 617 nM) per ml assay buffer was used to prepare a solution of [^3H]-PGD2 at a concentration of 6 nM (50 μl/well for final conc. of 2 nM); cold PGD2 (Biomol #PG-005, lot # P4653) was dissolved in DMSO for a stock of 10 mM (stored at −20° C.). The 10 mM stock was diluted 3:1000 to obtain a final concentration of […] (50 μl/well for final conc. of […]). Assay buffer: Hank's balanced saline supplemented with HEPES and sodium bicarbonate: 100 ml/L of 10× Hank's Balanced saline (with Ca^+2, Mg^+2); 10 ml/L of 1M HEPES; 4.7 ml/L of 7.5% Sodium Bicarbonate.
In the assay, the capacity of each D-ring compound to compete with binding of ^3H-PGD2 was measured at both the CRTH2 and DP receptors, and an IC50 value (in μM) was determined. […] The binding assay procedure of Example 1 was used. Preferably, the ratio of IC50 at CRTH2 to IC50 at DP is less than about twenty, and more preferably is […].

For experiment [2], the system named is isolated human eosinophils. The experiment can be described thus: [Ca2+]i mobilization in isolated human eosinophils. The format is cell-based. An excerpt: Calcium mobilization can be detected and measured by flow cytometry, and by labeling with fluorescent dyes that are trapped intracellularly. […] The ratio of fluorescence produced by the calcium-bound dye to that produce by the unbound dye is used to estimate the intracellular calcium concentration. In one embodiment, for example, the following method can be used. Cells that express CRTH2 are collected, and resuspended in fresh media at ˜2×10^5/ml the day before performing the calcium flux assay. Cells are incubated at 37° C. for not longer than 20-30 minutes, and then spun down and resuspended in 50 ml fresh PTI buffer (Hank's Buffer, pH 7.2-7.4; 10 mM Hepes; 1.6 mM CaCl2) containing Indo-1 AM, pre-warmed to 37° C., at a concentration of 10 million per ml. Cells are excited, and fluorescence is measured using a fluorimeter (Photon Technology Corporation, International). After the readout has stabilized, the time axis is reset, and PGD2 is added at a specific time point (e.g., 20 seconds). After response, the following reagents are added to the cuvette, to release and chelate total calcium, in the following order: 20 μl of 18% Triton X-100, 20 μl of 3M Tris, pH 8.5, and 20 μl of 0.5 M EGTA, pH 8.5. The experiment is repeated in the presence and the absence of a test compound. […] Therefore, in the presence of an […] test compound, the EC50 would be expected to be higher than this value, whereas in the presence of an agonist test compound, the EC50 would be expected to decrease.

Experiment [3] concerns isolated human eosinophils. Kind of experiment: Reactive oxygen species (ROS) release in isolated human eosinophils. The format is cell-based. As for the experimental part: Another secondary assay is the reactive oxygen species release assay. One measure of PGD2-induced activation of CRTH2 cells, such as eosinophils, is the intracellular release of reactive oxygen species. This can be tested in a reactive oxygen species release assay, or ROS, using lucigenin-dependent chemiluminescence to measure reactive oxygen species release. In this method, freshly isolated eosinophils are prepared, by standard methods, and resuspended at concentration 2-4×10^6 cells/ml in (RPMI; 10 mM HEPES; 1× Pen/Strep; 0.5% FBS) at room temperature. Immediately prior to use, 1 ml of cell suspension is added to 9 ml of buffer, prewarmed to 37° C. for 15 minutes, and added 0.5 ml of 200 mM Lucigenin.
Test compounds (made as 10,000× DMSO stocks) are diluted in buffer with DMSO (1.5 ul of DMSO/2.5 ml Buffer) and 25 μl/well added to white 96-well culture plate and placed in a 37° C. incubator. Isolated cells (held at room temperature) are diluted with room temperature buffer to 2-4×10^6 cells/ml, and incubated in a water bath at 37° C. for 15 minutes. At 15 minutes, 0.5 ml 200 mM lucigenin (bis-N-Methylacridinium Nitrate; Sigma, St. Louis, Mo.) is added to 10 ml of the cell suspension, mixed, and 100 μl/well is added to the prewarmed microtiter plate. The plate is returned to 37° C. for 5 minutes, at which time 25 μl of stimulus is added) The plate is read in the luminometer for 8 cycles. The luminescence of test compounds can be tested in the presence of PGD2, relative to a control sample containing PGD2 alone. A compound that interferes with the ability of PGD2 to result in intracellular reactive oxygen species release in CRTH2 cells, is a candidate for a CRTH2 antagonist.

Experiment [4] relates to isolated human eosinophils. The experiment can be described thus: Chemotaxis of isolated human eosinophils. The format is cell-based. As for the experimental part: In a specific example of this method, a competitive assay is performed to test compounds for their ability to interrupt the attraction of CRTH2 cells to PGD2. In this method, test compounds are diluted into the bottom wells of the Boyden chemotaxis chamber. A constant amount of PGD2 is also added to this dilution series, at a concentration known to have a chemotactic effect on CRTH2 cells. As a control, at least one aliquot contains only PGD2. Cells expressing CRTH2 are resuspended at 3-3.5×10^6 cells/ml in RPMI 1640 supplemented with 10 mM HEPES and 1 mg/ml bovine serum albumin (Sigma, St. Louis, Mo.), and placed into the upper wells of the chamber. The chambers are incubated for 90-120 minutes at 37° C. in a humidified CO2 incubator. After the incubation period, the number of migrating cells on the lower surface of the membrane filter is counted using light microscopy. The contribution of the test compound to the chemotactic activity of PGD2 is measured by comparing the chemotactic activity of the aliquots containing only PGD2 with the activity of aliquots containing test compound and PGD2. If addition of the test compound to the PGD2 solution results in a […] in the number of cells detected on the lower surface of the membrane relative to the number of cells detected using a solution containing only PGD2, then there is identified an antagonist of PGD2 induction of chemotactic activity of cells expressing CRTH2. In contrast, if the addition of the test compound to the PGD2 solution results in a […] in the number of cells detected on the lower surface of the membrane (relative to the number of cells detected using a solution containing only PGD2), then an […] of PGD2 induction of chemotactic activity of cells expressing CRTH2 is identified.
The chemotactic response of human T lymphocytes to PGD2, murine MDC and murine mSDF was also assayed. Chemotaxis was determined using a 48-well Boyden chamber (Neuroprobe, Cabin John, Md.), and 3.0 μm polycarbonate filters. Cells were resuspended (3-3.5×10^6 cells/ml) in RPMI 1640 supplemented with 10 mM HEPES and 1 mg/ml bovine serum albumin (Sigma, St. Louis, Mo.), and placed into the upper wells of the chamber. The compound to be tested was placed in the lower wells. The chambers were incubated for 90-120 minutes at 37° C. in a humidified CO2 incubator. At the end of the incubation period, the number of migrating cells on the filter (expressed per high power field) were enumerated microscopically. […] In FIG. 4, the chemotactic response of human basophils to PGD2 and C5a is shown.

Experiment [5] relates to human whole blood eosinophil. Kind of experiment: Human whole blood eosinophil actin-polymerization response. The format is cell-based. Conditions: read-out: Actin-polymer EC50. An excerpt:
Yet another secondary screening assay is an actin polymerization assay. Another biological effect of the interaction of PGD2 with CRTH2 is actin polymerization. Thus, an actin polymerization assay may be used as a secondary screen to characterize the activity of a compound isolated in the primary screening assays of the invention. In one embodiment, actin polymerization may be assayed using an actin-specific fluorescent label, nitrobenzoxadiazole (NBD)-phallacidin, which binds polymerized actin fiber. In a specific embodiment, the assay may be performed as follows: cell preparations are resuspended at 5-10×10^6 cells/ml in RPMI 1640 plus 10 mM HEPES, 100/10 Pen/Strep, and 0.5% FCS. The cell suspension is aliquoted (100 μL per well) into a 96-well U-bottom polypropylene microtiter plate. 50 ul of the appropriate stimulus (PGD2 or test compound, or both PGD2 and test compound) is added using an 8-channel pipette followed exactly 25 seconds later by 50 ul of a stopping solution which contains lysophosphotidylcholine (0.5 mg/ml), Hank's balanced salt solution (100 ul 10×), 16% formaldehyde (800 ul), and 6.6 uM NBD-phallacidin in MEOH (100 ul). The plate is allowed to sit at room temperature for 15 minutes. The plate is then centrifuged at 1000 rpm for 5 minutes, the supernatants flicked off and the cell pellets resuspended in 250 ul PBS plus 2%FCS and 0.2% sodium azide. Each sample is then read on a FACS Caliber instrument. Cells are gated using the forward scatter/side scatter data in the lymphocyte area. Responses are measured by the change in median FL-1 fluorescence between vehicle treated cells and stimulus treated cells. Test compounds can be assayed in the presence and absence of PGD2, and compared to a sample containing PGD2 alone. A compound that reduces PGD2-induced actin polymerization of CRTH2 cells is identified as a candidated CRTH2 antagonist.

Experiment [6] has as its target T1, CRTH2. The experiment can be described thus: [Ca2+]i mobilization assay in 300-19 cells expressing CRTH2. The format is cell-based. Conditions: CRTH2 stable cell line (300-19 transfectants).
From the text: Using 300-19 cells (transformed pre-B lymphocytes) expressing CRTH2, a number of mast cell and non-mast cell-derived mediators were screened in a [Ca^2+]i mobilization assay. […]

In the case of `CCCCCC(=O)CCC1C(=O)CC(O)C1C/C=C\CCCC(=O)O` (stereo not drawn) [13,14-dihydro-15-keto PGD2], the “selectivity for the CRTH2 receptor (in comparison with DP)” value (shortened to “selectivity for the CRTH2 receptor”) at CRTH2 [1] was “particularly selective for CRTH2”.
Take `CCCCC[C@@](C)(O)/C=C/[C@H]1C(=O)C[C@H](O)[C@@H]1C/C=C\CCCC(=O)O` [15(R)15-methyl PGD2]: on CRTH2 [1], the “selectivity for the CRTH2 receptor” value was “particularly selective for CRTH2”.
Take `CCCCC/C=C\C=C1\C(=O)CC(O)C1C/C=C\CCCC(=O)O` (stereo not drawn) [15-deoxy-delta 12, 14, PGD2]: at CRTH2 [1], the “selectivity for the CRTH2 receptor” value is given as “particularly selective for CRTH2”.
As for `CCCCC[C@H](O)/C=C/[C@@H]1[C@@H](C/C=C\CCCC(=O)O)[C@H]2CO[C@@H]1C2` [Compound U-46619], the EC50 (usually the midpoint of the concentration-response curve) was over 1000 nM in experiment [2] and over 100 nM in experiment [3].
With `CCCCC[C@H](O)/C=C/[C@@H]1[C@H]2C/C(=C/CCCC(=O)O)O[C@H]2C[C@H]1O` [PG12], the 50% effective concentration (EC50) is over 100 nM in experiment [4], over 1000 nM in experiment [2], over 1000 nM in experiment [3] and over 100000 nM in experiment [5].
With `CCCCC[C@H](O)/C=C/[C@H]1[C@H](O)CC(=O)[C@@H]1CCCCCCC(=O)O` [PGE1], the EC50 in experiment [4] is over 100 nM; in experiment [2], over 1000 nM; in experiment [3], over 100 nM; in experiment [5] it was over 100000 nM.
For the molecule `CCCCC[C@H](O)/C=C/[C@@H]1[C@@H](C/C=C\CCCC(=O)O)[C@@H](O)C[C@@H]1O` [Pa, 11b-PGF2], the EC50 is over 100 nM in experiment [4], over 100 nM in experiment [3] and over 1000 nM in experiment [5].
As for PGJ2, the half-maximal effective concentration (EC50) was over 100 nM in experiment [4]; 130 nM in experiment [2]; 75 nM in experiment [3]; 200 nM at CRTH2 [6]; 1800 nM in experiment [5].

These data come from patent US6878522B2, “Methods for the identification of compounds useful for the treatment of disease states mediated by prostaglandin D2” (priority 2000, dated 2005).
